Two compounds from article PMC9739815, “Akt/mTOR Targeting Activity of Resveratrol Derivatives in Non-Small Lung Cancer” (Molecules, 2022) can be followed below.

One experiment has as its system p-Akt/Akt in H23 cells. Description: Western blot of p-Akt/Akt, H23 cells. In kind it is cell-based, human. The following applies: 12 h. Here is the method: (§1) NSCLC cells (A549 and H23) were treated with RD2 and RD3 (10–100 μM) for 12 h. After which, all cells were collected and the expression levels of Akt, p-Akt, mTOR, and p-mTOR were investigated by Western blot analysis (Figure 5a, Figure 6a, Figure 7a and Figure 8a). […] Immunofluorescence staining of Akt, p-Akt, mTOR, and p-mTOR was performed in RD2 and RD3 treated cells. The results further confirm the effect of RD2 and RD3 on the Akt/mTOR pathway.
(§2) Western blotting was used to detect the presence of specific protein. Cells were seed at a density of 4 × 10^5 cells/well in 6 well plates overnight. Cells were treated with various concentrations RD1-RD5 were treated for 12 h. After treatment, the apoptosis cells were collected by centrifuging media with 1500 rpm for 5 min and aspirating supernatants. Then, cells were washed with cold 1× PBS and incubated with 1X RIPPA 40 µL containing 10× RIPA buffer 100 µL, protease inhibitors (PI) 100 µL, PMSF 10 µL, and Triton × 10 µL for 30 min on ice. BCA protein assay kit from Pierce Biotechnology (Rockford, IL, USA) analyzed protein concentrations. The extracted proteins were separated by 7.5–10% sodium dodecyl sulfate polyacrylamide gel electrophoresis (SDS-PAGE) and transferred to polyvinylidene difluoride membrane (PVDF). Then, the membranes were blocked with 5% non-fat milk powder for 2 h. After that, they were incubated with primary antibody at 4 °C Akt (#9272), phosphorylated Akt (#4060), mTOR (#2983S), and p-mTOR (#5536S) overnight. The membranes were washed with Tris-buffered saline/Tween 20 3 times and incubated with secondary antibodies for 2 h. Finally, the protein bands were detected using chemiluminescence substrate and exposed by Chemiluminescent ImageQuant LAS4000. Protein bands were analyzed using Image J software.
Background: In western blotting, separated proteins are transferred to a membrane and probed.

For experiment [1], the system named is p-mTOR/mTOR in A549 cells. Description: Western blot of p-mTOR/mTOR, A549 cells. Format: cell-based, human. The following applies: 12 h. Here is the method:
as §1, §2

In experiment [2] the test system is H23 cells. Description: Hoechst 33342/PI nuclear staining apoptosis assay, H23 cells. In kind it is cell-based, human. The following applies: 24 h. Here is the method: Apoptosis is considered as an important mechanism of action of anti-cancer drugs. The important characteristics of apoptotic cells include the nuclear morphological changes, chromatin condensation, and DNA fragmentation. Hoechst 33342 and propidium iodide (PI) double staining was utilized to determine the mode of cell death by monitoring the nucleus morphology of apoptotic cells as well as their membrane integrity. Cells were seeded in a 96-well plate at the density of 1 × 10^4 cells/well and treated with various concentrations of RD2 and RD3 (10–200 μM) for 24 h. The cells were co-stained with Hoechst 33342 and PI. […] The red fluorescence of PI indicated a late apoptosis cell and necrotic cells.
This method was applied to define apoptotic and necrotic cell death by using nuclear staining with Hoechst 33342. The cells were seeded on 96-well plates at the density 1 × 10^4 cells per well in 96-well plates and incubated overnight. The cells were treated with various concentrations of RD1-RD5 and incubated for 24 h at 37 °C. Afterward, the cells were incubated with Hoechst 33342 (10 μg/mL) / PI (5 μg/mL) solution for 30 min at 37 °C. Then, they were visualized and imaged under a fluorescence microscope (Olympus DP70, Melville, NY, USA). Results are reported as a percentage of apoptotic cells.

The test system of the next experiment is p-Akt/Akt in A549 cells. Description: Western blot of p-Akt/Akt, A549 cells. In kind it is cell-based, human. The following applies: 12 h. Here is the method: as §1, §2
For experiment [3], the system named is H23 cells. Description: MTT cell viability assay, H23 cells. The following applies: Homo sapiens, NCI-H23, 24 h, 0–200 µM, read-out: IC50 ± SEM of NSCLC cells, H23. In kind it is cell-based. Here is the method: NSCLC cells were cultured overnight and treated with various concentrations (0–200 µM) of resveratrol derivatives (RD1-RD5) and resveratrol for 24 h, and then cell viability was analyzed by the 3-(4, 5-dimethylthiazolyl-2)-2, 5-diphenyltetrazolium bromide (MTT) assay to evaluate the percentage of cell viability. All of the data were calculated on the basis of the results of three replicated samples. […] The difference of the structure at C-4 was that the hydroxyl group of RD2 was modified to the methoxy group of RD3 and at C-3, the methoxy group of RD2 was changed to the hydroxyl group of RD3. […] Furthermore, resveratrol decreased cell viability in NSCLC cells (A549, H23, and H460) with the IC50 at more than 200 µM which was the same RD3 (Figure 2a–d). This different action on cancer cells as a result of chemical structure modification has provided an insight for the structure–activity relationship that may facilitate the further development of the potent compound from the lead structure of resveratrol derivatives. Cell viability was investigated by MTT colorimetric assay. All cell lines were cultured at the density of 1 × 10^4 cells per well in a 96-well tissue culture plate and incubated in an incubator. After that, cells were treated with various concentrations of RD1-RD5 for 24 h at 37 °C and analyzed by the MTT assay according to the manufacturer’s protocol (Sigma Chemical, St. Louis, MO, USA). In calculating the cell viability by a microplate reader (Anthros, Durham, NC, USA), the measured absorbance of treated cells were divided by the value of untreated cells and are reported as a percentage.
(Tetrazolium dyes change colour on reduction, which living cells bring about.)

Experiment [4] has as its system H23 cells. Description: Colony formation assay, H23 cells. In kind it is cell-based, human. The following applies: for reduction of number of forming colonies: 24 h treatment, 7 days; for reduction of number of forming colonies / decrease of colony size: vs control. Here is the method: Colony formation assay was used to confirm the anti-cancer action of resveratrol derivatives, as it is a cell proliferation assay which can detect the ability of a single cell to grow into a colony. NSCLC cells were seeded and treated with RD2 and RD3 (1–200 μM) for 24 h. The treated cells were subjected to colony formation assay for 7 days. The crystal violet-staining colony represented the colony suppression effect of RD2 and RD3 compared to the untreated control (Figure 3a,b). The RD2 compound dramatically abolished the forming colony. Colony number was absent in response to RD2 at the concentrations of 100 and 200 μM, whereas there was no significant response to RD3 (Figure 3a,b).
Cells were seeded at a density of 300 cells/well into 6-well plate and then further treated with various concentrations resveratrol derivatives for 24 h after that the medium was replaced and the cell were incubated for colony number and colony size were investigated after fixing with methanol and acetic acid (3:1) solution and staining with 0.05% w/v crystal violet in 4% formaldehyde.

The subject of a further experiment is p-mTOR/mTOR in H23 cells. Description: Western blot of p-mTOR/mTOR, H23 cells. In kind it is cell-based, human. The following applies: 12 h. Here is the method: as §1, §2

Where only a bound is given, the exact number is not on record here.

Regarding `COc1cc(CCc2ccc(O)c(OC)c2)ccc1O` [RD2, 4,4′-(ethane-1,2-diyl)bis(2-methoxyphenol)], the “p-Akt/Akt protein expression levels” value with p-Akt/Akt in H23 cells (50 μM, vs untreated control) is recorded as “significant decrease”; with p-Akt/Akt in H23 cells (100 μM, vs untreated control), “significant decrease”; with p-Akt/Akt in A549 cells (A549 cells, 50 μM, vs untreated control), “significant decrease”; in the experiment with p-Akt/Akt in A549 cells (A549 cells, 100 μM, vs untreated control), “significant decrease”. Moreover, the “p-mTOR/mTOR protein expression levels” value in experiment [1] (100 μM, vs untreated control) is “significant decrease”; with p-mTOR/mTOR in H23 cells (100 μM, vs untreated control), “significant decrease”. For the same compound, the apoptotic ratio in the experiment with H23 cells [2] (100 μM) is reported as 36.63%; in the experiment on H23 cells [2] (200 μM), 75.79%. Further, the IC50 in the experiment with H23 cells [3] came out at 104 ± 6.08 µM. In addition, the “reduction of number of forming colonies” value with H23 cells [4] (10 μM) worked out at 25.43%; in the experiment on H23 cells [4] (100 μM), 94.16%; in the experiment with H23 cells [4] (200 μM), 98.23%. The “decrease of colony size” value in the experiment with H23 cells [4] (100 μM) turned out to be 64.42%; in the experiment on H23 cells [4] (200 μM), 65.98%.

As to `COc1ccc(CCc2ccc(O)c(OC)c2)cc1O` [RD3, 4-(3-hydroxy-4-methoxyphenethyl)-2-methoxyphenol], the “p-Akt/Akt protein expression levels” value is listed as “increased” in the experiment on p-Akt/Akt in H23 cells (10–100 μM) and “increased” in the experiment with p-Akt/Akt in A549 cells (A549 cell, 10–200 μM). Further, the “p-mTOR/mTOR protein expression levels” value (in experiment [1] (10–100 μM); with p-mTOR/mTOR in H23 cells (10–100 μM)) was “no effect” each time. Also, the apoptotic ratio in the experiment on H23 cells [2] (200 μM) turned out to be 18.57%. For the same compound, the IC50 with H23 cells [3] is above 200 µM. Besides, the “reduction of number of forming colonies” value in the experiment on H23 cells [4] (10 μM) turned out to be 24.83%; in the experiment on H23 cells [4] (100 μM), 27.70%; with H23 cells [4] (200 μM) it was 59.74%. Also, in the experiment with H23 cells [4] (10–200 μM), the “effect on colony size” value is reported as “no significant effect”.

A word on the IC50: it is the concentration that gives 50% inhibition.
